The numbers were not newly measured in US20010049447A1, “Mibefradil analogues and their use” (priority 2000, published 2001), which cites them from elsewhere.

The data set relates to fructose fed rats.

In the case of `COCC(=O)O[C@]1(CCN(C)CCCc2nc3ccccc3[nH]2)CCc2cc(F)ccc2[C@@H]1C(C)C.Cl.Cl` [mibefradil, Methoxyacetic acid 2(S)-[2-[N-[3-(2-benzimidazolyl)propyl]-N-methylamino]ethyl]-6-fluoro-1(S)-isopropyl-1,2,3,4-tetrahydro-2-naphthyl ester dihydrochloride], the blood pressure entry was “decrease” and the hyperinsulinemia entry is “decrease”.
